# Measurements taken from patent publication US8604217B2, “Compound, a process for its preparation, a pharmaceutical composition, use of a compound, a method for modulating or regulating serine/threonine kinases and a serine/threonine kinases modulating agent” (Selvita S.A., priority 2009, dated 2013).
# Read-outs that look alike come from different tables or passages of the source.
# Experiments:
# p-4EBP1 (Ser65) = assay: In vitro inhibition of protein phosphorylation, Western blot in MV4-11 cells; format: cell-based, human; details: for IC50: Homo sapiens, MV4-11, MV411 cells, read-out: calculated cellular IC50 for biomarker inhibition, p-4EBP1 (Ser65)
# Procedure: (§1) The inventors have investigated the efficacy of PIM-1 kinase inhibition by compound 20 on MV4-11 cells 4 h and 24 h after the treatment. The efficacy of PIM-1 inhibition was evaluated basing on the changes in the expression and phosphorylation levels of its downstream target proteins, using Western blot (FIG. 1). Sunitinib was used as a positive control. After densitometric quantification of the obtained results, cellular IC50 was assessed (Table 6). […] PIM-1 and tubulin protein levels were assessed as controls.
# c-MYC = assay: as above; format: cell-based, human; details: for IC50: Homo sapiens, MV4-11, MV411 cells, read-out: calculated cellular IC50 for biomarker inhibition, c-MYC
# Procedure: as §1
# PTK5(h) = PTK5(h) (Homo sapiens (Human), UniProt P42685); assay: KinaseProfiler kinase panel; format: biochemical
# LOK(h) = LOK(h) (Homo sapiens (Human), UniProt O94804); assay: KinaseProfiler kinase panel; format: biochemical
# ULK2(h) = ULK2(h) (Homo sapiens (Human), UniProt Q8IYT8); assay: KinaseProfiler kinase panel; format: biochemical
# Aurora-A(h) = Aurora-A(h) (Homo sapiens (Human), UniProt O14965); assay: KinaseProfiler kinase panel; format: biochemical
# TBK1(h) = TBK1(h) (Homo sapiens (Human), UniProt Q9UHD2); assay: KinaseProfiler kinase panel; format: biochemical
# BRK(h) = BRK(h) (Homo sapiens (Human), UniProt Q13882); assay: KinaseProfiler kinase panel; format: biochemical
# ZIPK(h) = ZIPK(h) (Homo sapiens (Human), UniProt O43293); assay: KinaseProfiler kinase panel; format: biochemical
# SRPK1(h) = SRPK1(h) (Homo sapiens (Human), UniProt Q96SB4); assay: KinaseProfiler kinase panel; format: biochemical
# cKit(V654A)(h) = cKit(V654A)(h) (Homo sapiens (Human), UniProt P10721, V654A); assay: KinaseProfiler kinase panel; format: biochemical
# CK2α2(h) = CK2α2(h) (Homo sapiens (Human), UniProt P19784); assay: KinaseProfiler kinase panel; format: biochemical
# PhKγ2(h) = PhKγ2(h) (Homo sapiens (Human), UniProt P15735); assay: KinaseProfiler kinase panel; format: biochemical
# PASK(h) = PASK(h) (Homo sapiens (Human), UniProt Q96RG2); assay: KinaseProfiler kinase panel; format: biochemical
# Fyn(h) = Fyn(h) (Homo sapiens (Human), UniProt P06241); assay: KinaseProfiler kinase panel; format: biochemical
# CaMKIIβ(h) = CaMKIIβ(h) (Homo sapiens (Human), UniProt Q13554); assay: KinaseProfiler kinase panel; format: biochemical
# MRCKα(h) = MRCKα(h) (Homo sapiens (Human), UniProt Q5VT25); assay: KinaseProfiler kinase panel; format: biochemical
# cKit(h) = cKit(h) (Homo sapiens (Human), UniProt P10721); assay: KinaseProfiler kinase panel; format: biochemical
# PIM-1(h) = PIM-1(h) (Homo sapiens (Human), UniProt P11309); assay: KinaseProfiler kinase panel; format: biochemical
# AMPKα2(h) = AMPKα2(h) (Homo sapiens (Human), UniProt P54646); assay: KinaseProfiler kinase panel; format: biochemical
# DAPK2(h) = DAPK2(h) (Homo sapiens (Human), UniProt Q9UIK4); assay: KinaseProfiler kinase panel; format: biochemical
# IKKβ(h) = IKKβ(h) (Homo sapiens (Human), UniProt O14920); assay: KinaseProfiler kinase panel; format: biochemical
# CaMKIδ(h) = CaMKIδ(h) (Homo sapiens (Human), UniProt Q8IU85); assay: KinaseProfiler kinase panel; format: biochemical
# Rsk2(h) = Rsk2(h) (Homo sapiens (Human), UniProt P51812); assay: KinaseProfiler kinase panel; format: biochemical
# MAPKAP-K3(h) = MAPKAP-K3(h) (Homo sapiens (Human), UniProt Q16644); assay: KinaseProfiler kinase panel; format: biochemical
# TSSK1(h) = TSSK1(h) (Homo sapiens (Human), UniProt Q9BXA7); assay: KinaseProfiler kinase panel; format: biochemical
# PIM-2(h) = PIM-2(h) (Homo sapiens (Human), UniProt Q9P1W9); assay: KinaseProfiler kinase panel; format: biochemical
# Met(Y1248D)(h) = Met(Y1248D)(h) (Homo sapiens (Human), UniProt P08581, Y1248D); assay: KinaseProfiler kinase panel; format: biochemical
# DMPK(h) = DMPK(h) (Homo sapiens (Human), UniProt Q09013); assay: KinaseProfiler kinase panel; format: biochemical
# Rse(h) = Rse(h) (Homo sapiens (Human), UniProt Q06418); assay: KinaseProfiler kinase panel; format: biochemical
# SAPK2b(h) = SAPK2b(h) (Homo sapiens (Human), UniProt Q15759); assay: KinaseProfiler kinase panel; format: biochemical
# NEK11(h) = NEK11(h) (Homo sapiens (Human), UniProt Q8NG66); assay: KinaseProfiler kinase panel; format: biochemical
# Tec(h) activated = Tec(h) activated (Homo sapiens (Human), UniProt P42680); assay: KinaseProfiler kinase panel; format: biochemical
# IGF-1R(h) = IGF-1R(h) (Homo sapiens (Human), UniProt P08069); assay: KinaseProfiler kinase panel; format: biochemical
# IRAK1(h) = IRAK1(h) (Homo sapiens (Human), UniProt P51617); assay: KinaseProfiler kinase panel; format: biochemical
# MAPK1(h) = MAPK1(h) (Homo sapiens (Human), UniProt P27361); assay: KinaseProfiler kinase panel; format: biochemical
# LOK(h), sequence (O94804 whole entry): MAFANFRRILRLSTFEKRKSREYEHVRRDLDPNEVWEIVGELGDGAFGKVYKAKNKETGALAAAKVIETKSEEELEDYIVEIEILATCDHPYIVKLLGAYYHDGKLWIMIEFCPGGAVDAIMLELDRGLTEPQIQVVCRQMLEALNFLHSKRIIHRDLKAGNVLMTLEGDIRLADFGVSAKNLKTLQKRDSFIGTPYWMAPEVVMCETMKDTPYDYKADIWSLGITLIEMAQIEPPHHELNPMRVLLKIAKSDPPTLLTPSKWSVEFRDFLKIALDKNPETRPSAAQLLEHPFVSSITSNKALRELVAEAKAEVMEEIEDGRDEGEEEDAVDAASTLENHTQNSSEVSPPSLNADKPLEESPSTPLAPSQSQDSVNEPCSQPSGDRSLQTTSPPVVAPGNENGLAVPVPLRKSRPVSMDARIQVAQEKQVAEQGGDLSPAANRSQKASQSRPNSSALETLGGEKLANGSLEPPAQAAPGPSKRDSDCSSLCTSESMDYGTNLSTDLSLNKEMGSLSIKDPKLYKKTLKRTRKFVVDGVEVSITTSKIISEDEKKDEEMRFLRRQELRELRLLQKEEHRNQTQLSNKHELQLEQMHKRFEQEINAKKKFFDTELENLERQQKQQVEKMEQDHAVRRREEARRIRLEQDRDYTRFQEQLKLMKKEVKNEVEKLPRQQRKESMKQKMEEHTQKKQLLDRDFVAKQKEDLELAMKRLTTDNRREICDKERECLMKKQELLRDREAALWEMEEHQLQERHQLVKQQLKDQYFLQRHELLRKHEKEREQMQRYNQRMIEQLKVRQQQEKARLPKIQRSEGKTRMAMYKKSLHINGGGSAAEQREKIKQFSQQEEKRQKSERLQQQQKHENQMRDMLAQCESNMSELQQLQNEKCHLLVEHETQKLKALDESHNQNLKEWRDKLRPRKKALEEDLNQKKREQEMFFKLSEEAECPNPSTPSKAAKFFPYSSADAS
# Aurora-A(h), sequence (O14965 whole entry): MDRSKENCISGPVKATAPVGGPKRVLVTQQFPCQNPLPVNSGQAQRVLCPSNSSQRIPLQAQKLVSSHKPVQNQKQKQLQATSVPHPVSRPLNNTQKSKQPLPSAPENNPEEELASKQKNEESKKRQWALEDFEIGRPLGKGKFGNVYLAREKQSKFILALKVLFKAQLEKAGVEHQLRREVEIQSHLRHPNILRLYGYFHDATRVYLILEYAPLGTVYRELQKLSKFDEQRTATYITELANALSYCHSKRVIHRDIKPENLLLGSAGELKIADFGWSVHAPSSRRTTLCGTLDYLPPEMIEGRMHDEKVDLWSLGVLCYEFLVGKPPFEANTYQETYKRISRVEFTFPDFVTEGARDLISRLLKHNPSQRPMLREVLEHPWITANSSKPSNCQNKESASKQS
# SAPK2b(h), sequence (Q15759 whole entry): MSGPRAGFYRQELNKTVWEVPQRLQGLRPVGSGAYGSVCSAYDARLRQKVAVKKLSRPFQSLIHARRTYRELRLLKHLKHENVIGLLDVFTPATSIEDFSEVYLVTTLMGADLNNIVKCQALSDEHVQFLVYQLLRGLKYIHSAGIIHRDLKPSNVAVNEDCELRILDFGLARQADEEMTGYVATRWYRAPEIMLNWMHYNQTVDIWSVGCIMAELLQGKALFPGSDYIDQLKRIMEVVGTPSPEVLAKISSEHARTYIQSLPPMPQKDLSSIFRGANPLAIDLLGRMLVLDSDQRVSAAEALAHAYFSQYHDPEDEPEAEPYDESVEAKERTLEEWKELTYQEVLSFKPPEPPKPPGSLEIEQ
# PIM-2(h), sequence (Q9P1W9 whole entry): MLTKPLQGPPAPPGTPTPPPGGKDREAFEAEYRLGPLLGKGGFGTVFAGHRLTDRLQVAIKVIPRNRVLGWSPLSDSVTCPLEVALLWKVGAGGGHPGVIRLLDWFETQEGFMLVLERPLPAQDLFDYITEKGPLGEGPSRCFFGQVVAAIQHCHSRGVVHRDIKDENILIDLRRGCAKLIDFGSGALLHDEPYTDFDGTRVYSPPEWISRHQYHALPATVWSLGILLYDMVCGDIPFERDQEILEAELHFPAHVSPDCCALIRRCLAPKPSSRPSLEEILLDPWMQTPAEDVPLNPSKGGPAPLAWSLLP
# cKit(V654A)(h), sequence (P10721 26-976 V654A): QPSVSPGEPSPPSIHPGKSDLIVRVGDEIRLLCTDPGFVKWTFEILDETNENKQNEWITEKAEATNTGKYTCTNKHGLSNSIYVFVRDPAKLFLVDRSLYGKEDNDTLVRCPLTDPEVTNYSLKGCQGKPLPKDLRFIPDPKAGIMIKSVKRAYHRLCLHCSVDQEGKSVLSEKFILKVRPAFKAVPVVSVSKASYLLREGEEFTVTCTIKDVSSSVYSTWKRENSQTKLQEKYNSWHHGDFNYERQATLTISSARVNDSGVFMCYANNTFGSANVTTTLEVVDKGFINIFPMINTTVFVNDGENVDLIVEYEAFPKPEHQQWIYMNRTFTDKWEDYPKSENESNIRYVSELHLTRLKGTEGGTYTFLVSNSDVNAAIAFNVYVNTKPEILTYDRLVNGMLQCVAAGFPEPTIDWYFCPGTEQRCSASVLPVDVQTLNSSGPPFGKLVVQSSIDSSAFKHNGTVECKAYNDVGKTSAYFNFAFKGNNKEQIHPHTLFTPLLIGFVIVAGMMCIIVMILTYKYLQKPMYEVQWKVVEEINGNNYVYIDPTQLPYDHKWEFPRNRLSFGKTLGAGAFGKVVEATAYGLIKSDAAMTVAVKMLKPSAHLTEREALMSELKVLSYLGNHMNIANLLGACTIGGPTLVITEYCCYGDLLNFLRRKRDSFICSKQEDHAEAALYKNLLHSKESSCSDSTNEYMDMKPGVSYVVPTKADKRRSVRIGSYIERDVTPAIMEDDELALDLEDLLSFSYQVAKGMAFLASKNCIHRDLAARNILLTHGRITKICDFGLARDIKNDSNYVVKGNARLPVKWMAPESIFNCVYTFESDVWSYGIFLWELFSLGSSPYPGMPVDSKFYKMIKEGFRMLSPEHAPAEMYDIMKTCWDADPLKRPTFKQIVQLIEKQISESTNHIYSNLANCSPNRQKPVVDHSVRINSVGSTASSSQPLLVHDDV
# IRAK1(h), sequence (P51617 whole entry): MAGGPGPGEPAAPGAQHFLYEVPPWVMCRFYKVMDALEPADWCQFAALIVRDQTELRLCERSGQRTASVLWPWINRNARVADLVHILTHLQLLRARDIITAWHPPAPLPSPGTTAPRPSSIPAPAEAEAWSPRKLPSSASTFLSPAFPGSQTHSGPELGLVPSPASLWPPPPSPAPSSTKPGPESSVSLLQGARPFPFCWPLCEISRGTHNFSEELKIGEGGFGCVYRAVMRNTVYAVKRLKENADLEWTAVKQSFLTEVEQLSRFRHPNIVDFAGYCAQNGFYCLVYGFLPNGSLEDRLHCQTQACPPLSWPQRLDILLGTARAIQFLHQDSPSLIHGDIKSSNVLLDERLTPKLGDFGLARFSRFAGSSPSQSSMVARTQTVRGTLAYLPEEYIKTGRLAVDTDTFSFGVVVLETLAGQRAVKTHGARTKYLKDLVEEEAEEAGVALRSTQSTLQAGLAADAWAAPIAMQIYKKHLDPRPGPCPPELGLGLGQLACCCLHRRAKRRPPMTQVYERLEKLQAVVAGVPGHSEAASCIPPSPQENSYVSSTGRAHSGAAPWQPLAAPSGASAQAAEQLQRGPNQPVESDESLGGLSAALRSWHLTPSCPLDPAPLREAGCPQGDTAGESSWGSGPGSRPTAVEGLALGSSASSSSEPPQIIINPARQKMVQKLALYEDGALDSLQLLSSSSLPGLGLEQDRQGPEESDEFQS
# TSSK1(h), sequence (Q9BXA7 whole entry): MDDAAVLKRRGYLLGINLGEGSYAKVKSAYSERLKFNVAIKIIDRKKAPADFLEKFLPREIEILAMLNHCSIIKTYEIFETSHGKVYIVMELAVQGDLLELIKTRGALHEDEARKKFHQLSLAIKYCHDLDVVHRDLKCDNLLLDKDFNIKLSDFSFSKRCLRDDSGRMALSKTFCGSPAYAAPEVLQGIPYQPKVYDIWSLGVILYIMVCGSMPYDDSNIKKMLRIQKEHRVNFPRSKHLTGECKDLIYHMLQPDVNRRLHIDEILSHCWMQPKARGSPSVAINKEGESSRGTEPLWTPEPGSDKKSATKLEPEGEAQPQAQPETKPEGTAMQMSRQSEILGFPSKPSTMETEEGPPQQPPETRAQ
# IKKβ(h), sequence (O14920 whole entry): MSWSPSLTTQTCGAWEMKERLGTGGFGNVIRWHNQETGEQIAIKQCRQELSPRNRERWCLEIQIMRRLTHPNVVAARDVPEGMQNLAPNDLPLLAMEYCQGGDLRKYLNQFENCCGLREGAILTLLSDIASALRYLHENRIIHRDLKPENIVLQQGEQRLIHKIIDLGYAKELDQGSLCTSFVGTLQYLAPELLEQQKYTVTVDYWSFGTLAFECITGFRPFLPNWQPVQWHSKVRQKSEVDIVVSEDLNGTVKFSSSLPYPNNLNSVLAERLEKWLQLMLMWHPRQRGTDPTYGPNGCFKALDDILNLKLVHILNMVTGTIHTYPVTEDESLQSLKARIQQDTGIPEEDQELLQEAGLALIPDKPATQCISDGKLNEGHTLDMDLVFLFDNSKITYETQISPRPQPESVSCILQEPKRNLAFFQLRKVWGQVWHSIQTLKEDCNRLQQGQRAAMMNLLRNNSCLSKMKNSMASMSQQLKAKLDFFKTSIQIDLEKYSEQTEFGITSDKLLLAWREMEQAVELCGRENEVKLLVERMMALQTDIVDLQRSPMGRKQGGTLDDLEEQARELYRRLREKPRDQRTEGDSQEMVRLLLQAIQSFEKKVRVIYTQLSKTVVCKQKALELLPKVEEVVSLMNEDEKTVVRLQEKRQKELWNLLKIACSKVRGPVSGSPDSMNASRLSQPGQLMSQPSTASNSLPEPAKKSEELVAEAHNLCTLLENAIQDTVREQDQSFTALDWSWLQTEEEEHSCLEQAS
# cKit(h), sequence (P10721 26-976): as the sequence (P10721 26-976 V654A) above, with A629V counted along it
smiles,measurement,setting,value
"Brc1c(Br)c(Br)c2[nH]c(N3CCNCC3)nc2c1Br [Compound 20, 4,5,6,7-tetrabromo-2-(piperazin-1-yl)-1H-benzo[d]imidazole]",IC50,p-4EBP1 (Ser65); 4 h treatment,3130 nM
same,IC50,p-4EBP1 (Ser65); 24 h treatment,1120 nM
same,inhibition of p-4EBP1(Ser65) (Western blot),"p-4EBP1 (Ser65); MV4-11 cells, 4 h and 24 h",dose- and time-dependent inhibition
same,IC50,c-MYC; 4 h treatment,890 nM
same,IC50,c-MYC; 24 h treatment,2030 nM
same,inhibition of c-MYC (Western blot),"c-MYC; MV4-11 cells, after 4 h and 24 h",dose dependent inhibition
"CCn1c(N2CCNCC2)nc2c(Br)c(Br)c(Br)c(Br)c21 [Compound 416, 4,5,6,7-tetrabromo-1-ethyl-2-(piperazin-1-yl)-1H-benzo[d]imidazole]",remaining activity at 1 µM,PTK5(h),99%
same,remaining activity at 1 µM,LOK(h),50%
same,remaining activity at 1 µM,ULK2(h),88%
same,remaining activity at 1 µM,Aurora-A(h),125%
same,remaining activity at 1 µM,TBK1(h),104%
same,remaining activity at 1 µM,BRK(h),76%
same,remaining activity at 1 µM,ZIPK(h),95%
same,remaining activity at 1 µM,SRPK1(h),106%
same,remaining activity at 1 µM,cKit(V654A)(h),36%
same,remaining activity at 1 µM,CK2α2(h),73%
same,remaining activity at 1 µM,PhKγ2(h),88%
same,remaining activity at 1 µM,PASK(h),28%
same,remaining activity at 1 µM,Fyn(h),73%
same,remaining activity at 1 µM,CaMKIIβ(h),67%
same,remaining activity at 1 µM,MRCKα(h),96%
same,remaining activity at 1 µM,cKit(h),121%
same,remaining activity at 1 µM,PIM-1(h),1%
same,remaining activity at 1 µM,AMPKα2(h),67%
same,remaining activity at 1 µM,DAPK2(h),92%
same,remaining activity at 1 µM,IKKβ(h),78%
same,remaining activity at 1 µM,CaMKIδ(h),94%
same,remaining activity at 1 µM,Rsk2(h),81%
same,remaining activity at 1 µM,MAPKAP-K3(h),106%
same,remaining activity at 1 µM,TSSK1(h),96%
same,remaining activity at 1 µM,PIM-2(h),10%
same,remaining activity at 1 µM,Met(Y1248D)(h),81%
same,remaining activity at 1 µM,DMPK(h),97%
same,remaining activity at 1 µM,Rse(h),105%
same,remaining activity at 1 µM,SAPK2b(h),91%
same,remaining activity at 1 µM,NEK11(h),73%
same,remaining activity at 1 µM,Tec(h) activated,107%
same,remaining activity at 1 µM,IGF-1R(h),75%
same,remaining activity at 1 µM,IRAK1(h),33%
same,remaining activity at 1 µM,MAPK1(h),94%
